In the Kinase Knowledgebase extract (Sharma et al. 2016):
Where “and” joins values, the source holds several entries; their conditions need not be identical. Identical values can stand only once.

What was measured:
PIK3CA (human) = PIK3CA (human) (UniProt P42336); assay: Enzyme Assay
PIK3CB (Human) = PIK3CB (Human) (UniProt P42338); assay: Enzyme Assay
PIK3CD (Human) = PIK3CD (Human) (UniProt O00329); assay: Enzyme Assay
PIK3CG (human) [1] = biological target: PIK3CG (human) (UniProt P48736); assay: Enzyme Assay
Sequence of PIK3CG (human) (P48736 whole entry, looked up): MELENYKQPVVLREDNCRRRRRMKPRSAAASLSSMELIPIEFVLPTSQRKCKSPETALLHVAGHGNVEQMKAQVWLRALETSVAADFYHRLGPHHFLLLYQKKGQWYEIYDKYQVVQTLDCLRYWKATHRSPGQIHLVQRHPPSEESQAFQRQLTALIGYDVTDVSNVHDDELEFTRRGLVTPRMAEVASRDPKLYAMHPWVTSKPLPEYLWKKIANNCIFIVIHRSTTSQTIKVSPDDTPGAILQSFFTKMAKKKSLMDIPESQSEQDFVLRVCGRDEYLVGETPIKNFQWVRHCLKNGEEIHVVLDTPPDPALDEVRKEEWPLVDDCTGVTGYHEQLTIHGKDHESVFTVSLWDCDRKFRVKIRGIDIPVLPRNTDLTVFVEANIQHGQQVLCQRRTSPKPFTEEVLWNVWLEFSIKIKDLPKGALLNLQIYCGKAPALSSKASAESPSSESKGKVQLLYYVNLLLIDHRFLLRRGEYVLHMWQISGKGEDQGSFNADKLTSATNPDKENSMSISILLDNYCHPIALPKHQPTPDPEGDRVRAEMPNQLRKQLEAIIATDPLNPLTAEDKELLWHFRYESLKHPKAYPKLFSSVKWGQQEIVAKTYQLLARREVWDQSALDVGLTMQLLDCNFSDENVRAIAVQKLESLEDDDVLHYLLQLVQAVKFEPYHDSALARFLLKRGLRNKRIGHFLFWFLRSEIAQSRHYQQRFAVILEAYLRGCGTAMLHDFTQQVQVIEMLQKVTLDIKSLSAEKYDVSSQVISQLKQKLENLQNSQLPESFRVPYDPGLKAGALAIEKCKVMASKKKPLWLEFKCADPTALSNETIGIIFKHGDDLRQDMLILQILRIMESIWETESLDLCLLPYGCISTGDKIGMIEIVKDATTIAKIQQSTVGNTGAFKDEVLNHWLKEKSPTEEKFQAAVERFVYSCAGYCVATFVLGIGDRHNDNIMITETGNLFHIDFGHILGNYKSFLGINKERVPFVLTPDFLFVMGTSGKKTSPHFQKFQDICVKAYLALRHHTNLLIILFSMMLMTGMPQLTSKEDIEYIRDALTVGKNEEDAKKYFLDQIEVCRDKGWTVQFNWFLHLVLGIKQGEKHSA

PIK3CG (human) [2] = biological target: PIK3CG (human) (UniProt P48736); assay: Cell-Based Assay; details: u937
PIK3CG (human) [3] = biological target: PIK3CG (human) (UniProt P48736); assay: Cell-Based Assay; details: u937; remark: listed apart in the source

Sequence of PIK3CA (human) (P42336 whole entry, looked up): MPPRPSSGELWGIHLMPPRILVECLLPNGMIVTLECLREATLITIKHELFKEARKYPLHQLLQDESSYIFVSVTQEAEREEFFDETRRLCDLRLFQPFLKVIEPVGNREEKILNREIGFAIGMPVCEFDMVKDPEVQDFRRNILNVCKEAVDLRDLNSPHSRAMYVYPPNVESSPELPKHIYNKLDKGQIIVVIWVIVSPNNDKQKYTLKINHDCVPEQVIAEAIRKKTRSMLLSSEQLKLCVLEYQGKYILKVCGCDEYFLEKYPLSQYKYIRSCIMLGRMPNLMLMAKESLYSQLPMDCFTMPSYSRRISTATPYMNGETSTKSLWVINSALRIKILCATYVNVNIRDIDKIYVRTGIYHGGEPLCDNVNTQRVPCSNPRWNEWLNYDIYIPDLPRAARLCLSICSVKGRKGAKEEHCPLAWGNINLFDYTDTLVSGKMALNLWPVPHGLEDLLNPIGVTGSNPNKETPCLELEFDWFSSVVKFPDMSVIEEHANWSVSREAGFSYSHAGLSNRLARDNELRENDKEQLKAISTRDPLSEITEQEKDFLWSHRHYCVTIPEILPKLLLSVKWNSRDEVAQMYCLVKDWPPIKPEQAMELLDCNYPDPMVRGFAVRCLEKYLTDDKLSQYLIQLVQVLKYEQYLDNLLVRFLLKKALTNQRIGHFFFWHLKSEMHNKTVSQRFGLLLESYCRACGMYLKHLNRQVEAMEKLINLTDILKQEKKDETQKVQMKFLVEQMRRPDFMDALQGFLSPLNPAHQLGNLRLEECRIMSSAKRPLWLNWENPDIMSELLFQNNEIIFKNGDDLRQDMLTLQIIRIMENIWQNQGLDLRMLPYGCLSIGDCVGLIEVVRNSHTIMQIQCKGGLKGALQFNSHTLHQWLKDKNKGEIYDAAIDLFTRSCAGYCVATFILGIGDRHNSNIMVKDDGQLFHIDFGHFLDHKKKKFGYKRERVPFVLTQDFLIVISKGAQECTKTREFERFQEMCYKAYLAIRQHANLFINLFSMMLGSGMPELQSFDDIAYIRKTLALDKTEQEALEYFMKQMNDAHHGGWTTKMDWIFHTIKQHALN
Sequence of PIK3CD (Human) (O00329 whole entry, looked up): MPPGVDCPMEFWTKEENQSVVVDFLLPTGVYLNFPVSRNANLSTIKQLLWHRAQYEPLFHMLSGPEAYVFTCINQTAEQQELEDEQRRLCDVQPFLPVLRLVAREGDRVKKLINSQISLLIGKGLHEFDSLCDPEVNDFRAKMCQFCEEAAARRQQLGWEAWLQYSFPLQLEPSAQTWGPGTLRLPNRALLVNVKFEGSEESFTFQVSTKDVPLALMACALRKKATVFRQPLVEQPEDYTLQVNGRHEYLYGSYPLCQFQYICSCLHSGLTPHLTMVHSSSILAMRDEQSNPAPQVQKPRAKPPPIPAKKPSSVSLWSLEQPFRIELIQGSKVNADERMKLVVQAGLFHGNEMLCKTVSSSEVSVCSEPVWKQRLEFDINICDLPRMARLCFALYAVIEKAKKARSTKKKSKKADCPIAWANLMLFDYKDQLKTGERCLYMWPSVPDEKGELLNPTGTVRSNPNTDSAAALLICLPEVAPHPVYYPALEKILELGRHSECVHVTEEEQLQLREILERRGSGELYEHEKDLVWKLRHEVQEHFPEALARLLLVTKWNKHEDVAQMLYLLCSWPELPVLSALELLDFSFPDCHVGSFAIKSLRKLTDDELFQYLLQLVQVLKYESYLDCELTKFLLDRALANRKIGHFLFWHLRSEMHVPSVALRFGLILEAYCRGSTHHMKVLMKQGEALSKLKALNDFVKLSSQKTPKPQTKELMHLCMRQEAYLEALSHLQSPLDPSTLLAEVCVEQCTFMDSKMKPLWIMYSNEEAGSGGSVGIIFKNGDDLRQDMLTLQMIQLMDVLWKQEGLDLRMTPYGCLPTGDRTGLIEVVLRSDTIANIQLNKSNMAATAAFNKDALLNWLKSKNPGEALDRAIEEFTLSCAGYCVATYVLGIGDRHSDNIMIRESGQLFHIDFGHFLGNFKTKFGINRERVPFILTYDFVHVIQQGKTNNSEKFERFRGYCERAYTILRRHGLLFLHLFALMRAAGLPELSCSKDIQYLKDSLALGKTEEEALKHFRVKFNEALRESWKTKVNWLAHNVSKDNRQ
Sequence of PIK3CB (Human) (P42338 whole entry, looked up): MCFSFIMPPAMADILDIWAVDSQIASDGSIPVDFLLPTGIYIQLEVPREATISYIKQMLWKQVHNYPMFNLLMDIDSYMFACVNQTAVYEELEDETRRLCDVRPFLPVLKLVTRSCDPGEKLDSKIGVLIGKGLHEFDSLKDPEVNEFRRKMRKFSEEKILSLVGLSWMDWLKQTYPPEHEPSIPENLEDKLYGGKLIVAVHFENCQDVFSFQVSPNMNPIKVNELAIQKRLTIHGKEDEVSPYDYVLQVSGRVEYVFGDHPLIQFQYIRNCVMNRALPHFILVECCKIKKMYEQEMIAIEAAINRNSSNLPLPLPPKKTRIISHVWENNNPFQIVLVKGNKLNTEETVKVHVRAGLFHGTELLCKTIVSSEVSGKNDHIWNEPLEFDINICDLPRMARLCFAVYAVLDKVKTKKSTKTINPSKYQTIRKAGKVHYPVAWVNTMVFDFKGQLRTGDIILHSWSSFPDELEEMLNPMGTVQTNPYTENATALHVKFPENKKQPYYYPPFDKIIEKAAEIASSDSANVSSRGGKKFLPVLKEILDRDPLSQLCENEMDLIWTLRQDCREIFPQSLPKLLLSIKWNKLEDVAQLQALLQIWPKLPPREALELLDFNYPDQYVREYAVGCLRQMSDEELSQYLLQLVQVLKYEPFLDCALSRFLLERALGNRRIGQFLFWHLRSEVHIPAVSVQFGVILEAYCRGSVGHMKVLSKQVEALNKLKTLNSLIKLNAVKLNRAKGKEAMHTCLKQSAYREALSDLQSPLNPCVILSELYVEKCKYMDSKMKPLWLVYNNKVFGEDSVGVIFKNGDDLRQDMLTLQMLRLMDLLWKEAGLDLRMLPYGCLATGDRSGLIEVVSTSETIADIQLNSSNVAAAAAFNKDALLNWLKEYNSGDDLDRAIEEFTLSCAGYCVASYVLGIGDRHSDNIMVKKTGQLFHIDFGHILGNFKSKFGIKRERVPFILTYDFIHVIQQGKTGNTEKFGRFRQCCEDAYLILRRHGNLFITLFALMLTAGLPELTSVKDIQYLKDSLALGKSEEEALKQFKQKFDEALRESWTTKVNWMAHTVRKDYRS

Row | IC50 (PIK3CA (human)) [nM] | IC50 (PIK3CB (Human)) [nM] | IC50 (PIK3CD (Human)) [nM] | IC50 (PIK3CG (human) [1]) [nM] | IC50 (PIK3CG (human) [2]) | IC50 (PIK3CG (human) [3]) [nM] | Compound
1 | 660 | 1460 | 1500 | 94 | 387 nM | – | Cc1ccc(S(=O)(=O)NCC2(O)CCOCC2)cc1-c1cnc(N)c(-n2cncn2)n1
2 | 1200 | > 10000 | 1700 | 61 | – | – | Cc1ccc(S(=O)(=O)NCC(C)(C)O)cc1-c1cnc(N)c(-c2nc(C(C)C)no2)n1
3 | 960 | 730 | 2400 | 140 | – | – | Cc1ccc(S(=O)(=O)NC[C@H]2CNC[C@@H]2O)cc1-c1cnc(N)c(-n2cncn2)n1
4 | 1600 | 2700 | 4500 | 820 | – | – | CN[C@H]1CCC[C@@H]1NS(=O)(=O)c1ccc(C)c(-c2cnc(N)c(-c3ccnc(C)c3)n2)c1
5 | – | – | – | – | 145 nM | – | Cc1ncc(-c2nc(-c3cc(S(=O)(=O)NCC4COCCN4C)ccc3C)cnc2N)s1 (configuration not stated)
6 | – | – | – | – | > 10000 nM | – | Cc1cc(-c2nc(-c3cc(S(=O)(=O)NCC4CCN(C)C4)ccc3C)cnc2N)ccn1 (configuration not stated)
7 | 1100 | > 9100 | 330 | 81 | – | – | Cc1ccc(S(=O)(=O)NCC(C)(C)CO)cc1-c1cnc(N)c(-c2nc(C3CC3)no2)n1
8 | 200 | > 9100 | 292 | 12 | 129 nM | – | Cc1ccc(S(=O)(=O)NCCC(C)(C)O)cc1-c1cnc(N)c(-c2nc(C3CC3)no2)n1
9 | – | – | – | – | 40 nM | – | Cc1ccc(S(=O)(=O)N[C@H]2CC3(C[C@@H](O)C3)C2)cc1-c1cnc(N)c(-c2cn(C)nc2C)n1 (some centres not stated)
10 | – | – | – | – | 103 nM and 135 nM | – | Cc1ccc(S(=O)(=O)N[C@H]2CC[C@@](C)(O)CC2)cc1-c1cnc(N)c(-n2cncn2)n1
11 | – | – | – | – | – | 241 | Cc1ccc(S(=O)(=O)NC[C@@H]2COCCN2C)cc1-c1cnc(N)c(-c2cn(C)nc2C)n1.Cc1ccc(S(=O)(=O)NC[C@H]2COCCN2C)cc1-c1cnc(N)c(-c2cn(C)nc2C)n1
12 | 180 | 5220 | 1700 | 51 | 63 nM | – | Cc1cc(-c2nc(-c3cc(S(=O)(=O)N[C@H]4CC[C@H](N)CC4)ccc3C)cnc2N)ccn1
13 | 730 | 7500 | 910 | 110 | – | – | CN[C@@H]1CCC[C@H]1NS(=O)(=O)c1ccc(C)c(-c2cnc(N)c(-c3ccnc(C)c3)n2)c1
14 | – | – | – | – | 411 nM | – | Cc1ccc(S(=O)(=O)NC[C@H]2CCC(C)(C)O2)cc1-c1cnc(N)c(-n2cncn2)n1
15 | 40 | 990 | 40 | 5 | – | – | Cc1ncc(-c2nc(-c3cc(S(=O)(=O)NCC(F)(F)F)ccc3C)cnc2N)s1
16 | – | – | – | – | 60 nM | 337 | Cc1ccc(S(=O)(=O)NCC[C@@H](O)C(F)(F)F)cc1-c1cnc(N)c(-c2cn(C)nc2C)n1.Cc1ccc(S(=O)(=O)NCC[C@H](O)C(F)(F)F)cc1-c1cnc(N)c(-c2cn(C)nc2C)n1
